Results on one compound are retold here after PMC10057977, “Use of In Vivo Imaging and Physiologically-Based Kinetic Modelling to Predict Hepatic Transporter Mediated Drug–Drug Interactions in Rats” (Pharmaceutics, 2023).

For one data set, the system named is NTCP. Also noted: method as in earlier work. The note with it: in vitro; ref 30,43-55 and in-house data from Merck & Co.; cited from earlier work.
A further data set concerns OATP1B1. Also noted: method as in earlier work. As to conditions: in vitro, bracket not explained in the table, ref 30,43-55 and in-house data from Merck & Co., cited from earlier work.
The next data set deals with rMrp2 (Rattus norvegicus, UniProt Q63120). In kind it is in vivo. Also noted: from tissue; host or cells: liver of living male Wistar rats (Charles River Laboratories). The note with it: ketoconazole 3 mg/kg iv. The text has this: The tracer-kinetic model was developed to enable estimation of rate constants of hepatobiliary efflux from DCE-MRI profiles in individual animals. In this approach, the liver was assumed to consist of two compartments, the extracellular space (e) and the hepatocytes (h). Since water exchanges rapidly between those spaces, the change in relaxation rate was a weighted average (Equation (4)). (4) ΔR1(t)=r1,e·ve·ce(t)+r1,h·vh·ch(t)
Chain of rMrp2 (Q63120 whole entry): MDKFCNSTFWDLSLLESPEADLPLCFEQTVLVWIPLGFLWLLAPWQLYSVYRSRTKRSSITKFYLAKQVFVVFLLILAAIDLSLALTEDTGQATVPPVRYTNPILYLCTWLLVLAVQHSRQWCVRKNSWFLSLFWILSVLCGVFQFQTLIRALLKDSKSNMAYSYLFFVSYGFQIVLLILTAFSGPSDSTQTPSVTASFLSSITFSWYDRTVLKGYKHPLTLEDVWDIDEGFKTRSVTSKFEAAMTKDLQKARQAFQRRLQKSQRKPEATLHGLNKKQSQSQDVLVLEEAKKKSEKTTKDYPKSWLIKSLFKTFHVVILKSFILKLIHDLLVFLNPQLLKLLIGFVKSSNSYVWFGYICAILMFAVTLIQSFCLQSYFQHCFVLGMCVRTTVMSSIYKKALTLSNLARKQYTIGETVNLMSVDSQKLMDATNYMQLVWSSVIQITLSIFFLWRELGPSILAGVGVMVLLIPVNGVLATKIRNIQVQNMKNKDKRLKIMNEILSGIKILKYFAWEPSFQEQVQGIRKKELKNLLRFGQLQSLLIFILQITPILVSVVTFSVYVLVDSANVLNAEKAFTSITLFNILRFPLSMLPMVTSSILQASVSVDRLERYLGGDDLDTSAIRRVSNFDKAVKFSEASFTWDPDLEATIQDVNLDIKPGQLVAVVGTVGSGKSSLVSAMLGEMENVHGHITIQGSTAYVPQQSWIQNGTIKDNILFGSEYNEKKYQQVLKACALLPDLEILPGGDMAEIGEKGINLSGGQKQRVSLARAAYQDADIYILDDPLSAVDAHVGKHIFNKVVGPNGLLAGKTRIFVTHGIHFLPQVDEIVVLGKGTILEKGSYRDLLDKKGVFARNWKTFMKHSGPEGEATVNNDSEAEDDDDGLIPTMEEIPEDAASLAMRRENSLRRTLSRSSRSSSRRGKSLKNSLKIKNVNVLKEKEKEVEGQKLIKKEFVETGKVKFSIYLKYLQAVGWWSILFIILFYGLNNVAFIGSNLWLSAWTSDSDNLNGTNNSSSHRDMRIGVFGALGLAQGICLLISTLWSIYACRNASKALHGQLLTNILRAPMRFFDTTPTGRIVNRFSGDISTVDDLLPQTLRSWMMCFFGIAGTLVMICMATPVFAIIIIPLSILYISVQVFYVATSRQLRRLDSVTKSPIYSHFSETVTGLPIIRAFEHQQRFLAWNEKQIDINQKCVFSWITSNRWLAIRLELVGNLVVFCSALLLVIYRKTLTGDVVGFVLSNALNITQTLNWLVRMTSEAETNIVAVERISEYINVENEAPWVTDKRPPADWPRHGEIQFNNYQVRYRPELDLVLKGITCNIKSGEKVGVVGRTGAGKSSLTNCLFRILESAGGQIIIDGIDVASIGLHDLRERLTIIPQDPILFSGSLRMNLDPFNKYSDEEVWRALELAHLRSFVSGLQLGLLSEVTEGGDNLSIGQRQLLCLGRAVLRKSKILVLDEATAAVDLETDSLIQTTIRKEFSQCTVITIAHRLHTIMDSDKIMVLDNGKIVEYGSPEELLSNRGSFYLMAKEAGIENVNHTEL
The proportionality constant, r1,τ [L⋅mmol^−1⋅s^−1] , is the relaxivity of the contrast agent for the compartment τ (extracellular space, e or hepatocytes, h) at the respective field strength, while vτ [mL/mL tissue] is the volume fraction of the compartment τ . Previously measured ex vivo r1,tau values for gadoxetate were used in this work, as per. The underlying assumptions of the PBPK and tracer-kinetic models, relating to physiological volumes and perfusion, are consistent, despite different parameterizations according to the purpose of each model. For example, Vliv,extr in the PBPK model is defined as an absolute volume (units = L; sum of liver plasma and interstitial volumes), while in the tracer-kinetic model, ve is a volume fraction (dimensionless), defined as Vliv,extr/Vliver , where Vliver is the total liver volume. While some analogy can be drawn between CLactive […], and CLbiliary and kbh, the interpretations are distinct. For example, the operating concentrations of the PBPK parameters CLactive […], and CLbiliary are the unbound concentrations of gadoxetate in plasma and hepatocytes, while the tracer-kinetic model is parameterized with respect to the total concentration of gadoxetate.
Since ce(t) is the input to the hepatocytes, and no backflux from hepatocytes to extracellular space is assumed, Equation (5) can be derived. (5) vh·ch(t)=e^−t/Th∗khe·ce(t) where Th is the mean transit time of gadoxetate in the hepatocytes [min] , and * is convolution. The extracellular space is assumed to be in equilibrium with the blood pool and therefore the concentration ce(t) is proportional to the concentration cp(t) in the plasma of the feeding artery, i.e., ce(t) = (1 − E)·cp(t), where E is the extraction fraction of gadoxetate in the liver. Combining this assumption with Equations (4) and (5), and using (1 − E)·khe = E·Fp, with Fp being the apparent plasma flow into the liver [mL/min/mL tissue volume] , gives Equation (6), the operational equation for gadoxetate DCE-MRI in the liver. (6) ΔR1(t)=(1−E)·ve·r1,p·cp(t)+E·Fp·r1,h ·e^−t/Th ∗cp(t)
The rate constants were derived as K^trans = E·Fp, khe = E·Fp/(1 − E), and kbh = vh/Th, with a literature value for vh. The plasma concentrations cp(t) were not reliably measured in small animals due to the small diameter of the main vessels compared to the resolution of the measurement. […] Therefore, the source term cp(t) was derived from a two-compartment pharmacokinetic model for gadoxetate (see Supplementary Material, Section S5), and a step function as input in the blood compartment. The parameters kbh and khe were fitted to the liver data using a model implementation in Python. For each rat considered in these studies, the rate constants K^trans, khe, and kbh were calculated, in both control and inhibitory phases. The rate constants of the control and inhibitory phases were compared via calculation of simple (unstandardized) effect sizes (i.e., simple effect size = μcontrol − μtreatment, where μ is the mean average of all subjects) at the 95% confidence level. Statistical significance was assessed through a two-sided paired t-test, with p < 0.05 considered significant.

The next data set deals with MRP2. As to conditions: in vitro; bracket not explained in the table; ref 30,43-55 and in-house data from Merck & Co.; cited from earlier work.
The subject of the next data set is OATP1B3. Also noted: method as in earlier work. The note with it: in vitro; ref 30,43-55 and in-house data from Merck & Co.; cited from earlier work.
The conditions of data set [1]: cited from earlier work.
Details of data set [2]: method as in supplement [28]. The note with it: rat; 30 min after 3 mg/kg ketoconazole IV; ref supplement [28]; cited from earlier work.
The nature of data set [3]: Drug plasma concentrations in humans at therapeutic dosing. In kind it is in vivo. The note with it: ketoconazole plasma exposure, human.

Read-outs that look alike come from different tables or passages of the source.

As a reminder, the IC50 is the point on the concentration scale where inhibition reaches its midpoint. For orientation: Ki means the dissociation constant of the complex between target and ligand, obtained from inhibition or displacement. As usually defined, the Cmax is the peak of the concentration-time curve.

On to `CC(=O)N1CCN(c2ccc(OCC3COC(Cn4ccnc4)(c4ccc(Cl)cc4Cl)O3)cc2)CC1` (stereo not shown) [Ketoconazole], for which the IC50 with NTCP was 202 µM; with OATP1B1, 15.4 µM; in the data set with OATP1B1 (listed as ketoconazole), > 2 µM; in the data set on MRP2 it was > 20 µM; in the data set on OATP1B3 it was 3.9 µM. For the same compound, in the data set with OATP1B1, the Ki is 50.7 µM. The “Simple Effect Size (95% CI) kbh” value at rMrp2 (gadoxetate biliary efflux, control − treatment, positive = decrease, site D) was 0.02 (−0.02, 0.06) mL/min/mL liver. Moreover, the “change in gadoxetate kbh vs control” value on rMrp2 (rat, p = 0.39) is “no significant changes”. Further, the Cmax in data set [1] (human plasma, daily dose 200 mg (ketoconazole), read-out: Cmax (µM) [Daily Dose]) was 6.6 µM; in data set [1] (human, ref supplement [29], read-out: clinical Cmax), 7 µM. In data set [1] (human, ref supplement [29]), the “clinical Ctrough” value is 0.2 µM. The plasma concentration in data set [2] is reported as 4 µM. Besides, the “unbound Cmax” value in data set [3] is recorded as ~ 0.07 µM.
